PubChem BioAssay (NCI)
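The concentration for 50% growth inhibition is given as GI50. At the TGI there is no net growth.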

Tests used:
Experiment in all cases: growth of human tumour cells (NCI), 384-well format
NCI/ADR-RES ovarian = tested on: NCI/ADR-RES ovarian
786-0 renal = tested on: 786-0 renal
NCI-H23 lung = tested on: NCI-H23 lung
MDA-MB-468 breast = tested on: MDA-MB-468 breast
HL-60(TB) leukemia = tested on: HL-60(TB) leukemia
M14 melanoma = tested on: M14 melanoma
MALME-3M melanoma = tested on: MALME-3M melanoma
SW-620 colon = tested on: SW-620 colon
TK-10 renal = tested on: TK-10 renal
SNB-19 CNS = tested on: SNB-19 CNS
LOX IMVI melanoma = tested on: LOX IMVI melanoma
MDA-MB-231 breast = tested on: MDA-MB-231 breast
OVCAR-5 ovarian = tested on: OVCAR-5 ovarian
EKVX NSCLC = tested on: EKVX NSCLC
CCRF-CEM leukemia = tested on: CCRF-CEM leukemia
HT29 colon = tested on: HT29 colon
NCI-H322M lung = tested on: NCI-H322M lung
MDA-MB-435 melanoma = tested on: MDA-MB-435 melanoma
ACHN renal = tested on: ACHN renal
SF-539 CNS = tested on: SF-539 CNS
COLO 205 colon = tested on: COLO 205 colon
OVCAR-4 ovarian = tested on: OVCAR-4 ovarian
U251 glioblastoma = tested on: U251 glioblastoma
RPMI-8226 leukemia = tested on: RPMI-8226 leukemia
UO-31 renal = tested on: UO-31 renal
DU-145 prostate = tested on: DU-145 prostate
MOLT-4 leukemia = tested on: MOLT-4 leukemia
NCI-H226 lung = tested on: NCI-H226 lung
HOP-62 NSCLC = tested on: HOP-62 NSCLC
HCC-2998 colon = tested on: HCC-2998 colon
T-47D breast = tested on: T-47D breast
OVCAR-8 ovarian = tested on: OVCAR-8 ovarian
SK-OV-3 ovarian = tested on: SK-OV-3 ovarian
CAKI-1 renal = tested on: CAKI-1 renal
HCT-15 colon = tested on: HCT-15 colon
RXF 393 renal = tested on: RXF 393 renal
HS 578T breast = tested on: HS 578T breast
A549 NSCLC = tested on: A549 NSCLC
OVCAR-3 ovarian = tested on: OVCAR-3 ovarian
A498 renal = tested on: A498 renal
KM12 colon = tested on: KM12 colon
IGROV1 ovarian = tested on: IGROV1 ovarian
SF-295 CNS = tested on: SF-295 CNS
PC-3 prostate = tested on: PC-3 prostate
SK-MEL-5 melanoma = tested on: SK-MEL-5 melanoma
SNB-75 CNS = tested on: SNB-75 CNS
SN12C renal = tested on: SN12C renal
MCF7 breast = tested on: MCF7 breast
SR leukemia = tested on: SR leukemia
HCT-116 colon = tested on: HCT-116 colon
SK-MEL-28 melanoma = tested on: SK-MEL-28 melanoma
BT-549 breast = tested on: BT-549 breast
HOP-92 NSCLC = tested on: HOP-92 NSCLC
K-562 leukemia = tested on: K-562 leukemia
SF-268 CNS = tested on: SF-268 CNS
NCI-H460 NSCLC = tested on: NCI-H460 NSCLC
NCI-H522 lung = tested on: NCI-H522 lung
UACC-257 melanoma = tested on: UACC-257 melanoma

`CC1(O)CC(c2nc(-c3ccc4ccc(-c5ccccc5)nc4c3)c3c(N)nccn23)C1` (stereo unspecified) showed a GI50 (NCI/ADR-RES ovarian) of 5.47 µM, a TGI (NCI/ADR-RES ovarian) of 18.7 µM and a GI50 ([…]-0 renal) of 12.5 µM. It also gave a TGI (786-0 renal) of 25.1 µM, a GI50 (NCI-H23 lung) of 2.17 µM and a TGI (NCI-H23 lung) of 14.9 µM. For the same compound, the GI50 (MDA-MB-468 breast) was 1.9 µM, the TGI (MDA-MB-468 breast) was 6.36 µM and the GI50 (HL-60(TB) leukemia) was 0.0517 µM. It also gave a TGI (HL-60(TB) leukemia) of 1.61 µM, a GI50 (M14 melanoma) of 10.5 µM and a TGI (M14 melanoma) of 22.4 µM. It also gave a GI50 (MALME-3M melanoma) of 2.76 µM, a TGI (MALME-3M melanoma) of 12.3 µM and a GI50 (SW-620 colon) of 3.85 µM. It also gave a TGI (SW-620 colon) of 17.9 µM, a GI50 (TK-10 renal) of 6.58 µM and a TGI (TK-10 renal) of 19.3 µM. The GI50 (SNB-19 CNS) was 13 µM, the TGI (SNB-19 CNS) was 25.9 µM and the GI50 (LOX IMVI melanoma) was 11.1 µM. It also gave a TGI (LOX IMVI melanoma) of 23.2 µM, a GI50 (MDA-MB-231 breast) of 5.42 µM and a TGI (MDA-MB-231 breast) of 18.9 µM. For the same compound, the GI50 (OVCAR-5 ovarian) was 12.7 µM, the TGI (OVCAR-5 ovarian) was 25.9 µM and the GI50 (EKVX NSCLC) was 2.74 µM. It also gave a TGI (EKVX NSCLC) of 16.9 µM, a GI50 (CCRF-CEM leukemia) of 5.63 µM and a TGI (CCRF-CEM leukemia) of 17.9 µM. It also gave a GI50 (HT29 colon) of 0.306 µM, a TGI (HT29 colon) of 16 µM and a GI50 (NCI-H322M lung) of 4.22 µM. It also gave a TGI (NCI-H322M lung) of 17.4 µM, a GI50 (MDA-MB-435 melanoma) of 7.98 µM and a TGI (MDA-MB-435 melanoma) of 20.8 µM. For the same compound, the GI50 (ACHN renal) was 5.3 µM, the TGI (ACHN renal) was 22.4 µM and the GI50 (SF-539 CNS) was 13 µM. It also gave a TGI (SF-539 CNS) of 25.8 µM, a GI50 (COLO 205 colon) of 0.209 µM and a TGI (COLO 205 colon) of 11.3 µM. The GI50 (OVCAR-4 ovarian) was 10.3 µM, the TGI (OVCAR-4 ovarian) was 22.5 µM and the GI50 (U251 glioblastoma) was 13 µM. For the same compound, the TGI (U251 glioblastoma) was 25.8 µM, the GI50 (RPMI-8226 leukemia) was 1.32 µM and the TGI (RPMI-8226 leukemia) was 4.12 µM. The GI50 (UO-31 renal) was 6.8 µM, the TGI (UO-31 renal) was 20.5 µM and the GI50 (DU-145 prostate) was 5.74 µM. The TGI (DU-145 prostate) was 20.3 µM, the GI50 (MOLT-4 leukemia) was 2.89 µM and the TGI (MOLT-4 leukemia) was 10.4 µM. For the same compound, the GI50 (NCI-H226 lung) was 2.86 µM, the TGI (NCI-H226 lung) was 12.2 µM and the GI50 (HOP-62 NSCLC) was 7.05 µM. For the same compound, the TGI (HOP-62 NSCLC) was 20.3 µM, the GI50 (HCC-2998 colon) was 8.12 µM and the TGI (HCC-2998 colon) was 20.7 µM. It also gave a GI50 (T-47D breast) of 4.67 µM, a TGI (T-47D breast) of 14.3 µM and a GI50 (OVCAR-8 ovarian) of 10.2 µM. It also gave a TGI (OVCAR-8 ovarian) of 22 µM, a GI50 (SK-OV-3 ovarian) of 8.99 µM and a TGI (SK-OV-3 ovarian) of 21 µM. It also gave a GI50 (CAKI-1 renal) of 5.36 µM, a TGI (CAKI-1 renal) of 18.3 µM and a GI50 (HCT-15 colon) of 3.09 µM. The TGI (HCT-15 colon) was 14.6 µM, the GI50 (RXF 393 renal) was 2.76 µM and the TGI (RXF 393 renal) was 9.01 µM. It also gave a GI50 (HS 578T breast) of 9.96 µM, a TGI (HS 578T breast) of 21.6 µM and a GI50 (A549 NSCLC) of 10.3 µM. For the same compound, the TGI (A549 NSCLC) was 23.3 µM, the GI50 (OVCAR-3 ovarian) was 10.5 µM and the TGI (OVCAR-3 ovarian) was 22.4 µM. The GI50 (A498 renal) was 6.67 µM, the TGI (A498 renal) was 19 µM and the GI50 (KM12 colon) was 3.97 µM. The TGI (KM12 colon) was 13.8 µM, the GI50 (IGROV1 ovarian) was 10.7 µM and the TGI (IGROV1 ovarian) was 24.1 µM. The GI50 (SF-295 CNS) was 12.9 µM, the TGI (SF-295 CNS) was 25.6 µM and the GI50 (PC-3 prostate) was 10 µM. It also gave a TGI (PC-3 prostate) of 22.8 µM, a GI50 (SK-MEL-5 melanoma) of 2.43 µM and a TGI (SK-MEL-5 melanoma) of 12 µM. It also gave a GI50 (SNB-75 CNS) of 10.3 µM, a TGI (SNB-75 CNS) of 22 µM and a GI50 (SN12C renal) of 12.8 µM. The TGI (SN12C renal) was 25.6 µM, the GI50 (MCF7 breast) was 0.182 µM and the TGI (MCF7 breast) was 13.4 µM. It also gave a GI50 (SR leukemia) of 10.2 µM, a TGI (SR leukemia) of 21.8 µM and a GI50 (HCT-116 colon) of 7.55 µM. For the same compound, the TGI (HCT-116 colon) was 20.7 µM, the GI50 (SK-MEL-28 melanoma) was 13.8 µM and the TGI (SK-MEL-28 melanoma) was 26.7 µM. For the same compound, the GI50 (BT-549 breast) was 5.8 µM, the TGI (BT-549 breast) was 18.2 µM and the GI50 (HOP-92 NSCLC) was 2.73 µM. The TGI (HOP-92 NSCLC) was 15.3 µM, the GI50 (K-562 leukemia) was 7.3 µM and the TGI (K-562 leukemia) was 20.5 µM. It also gave a GI50 (SF-268 CNS) of 10.8 µM, a TGI (SF-268 CNS) of 22.9 µM and a GI50 (NCI-H460 NSCLC) of 2.79 µM. For the same compound, the TGI (NCI-H460 NSCLC) was 15.5 µM, the GI50 (NCI-H522 lung) was 5.74 µM and the TGI (NCI-H522 lung) was 19 µM. The GI50 (UACC-257 melanoma) was 10.7 µM and the TGI (UACC-257 melanoma) was 22.5 µM.
